According to US5708063A, “Photochromic compound” (Tokuyama Corporation, priority 1993, dated 1998):

Columns and labels:
Type in all cases: physicochemical
[1] = Photochromic PMMA cast film: initial coloration density, maximum absorption wavelength and fatigue life in xenon fadeometer (Example 9); conditions: PMMA cast film 0.1 mm; for λmax / Initial color density: xenon light; for T1/2: time for color density to fall to half of initial value, xenon fadeometer; for T1/2 / Initial color density: no stabilizer;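 on Initial color density: initial color density is an absorbance value so the % unit is wrong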
Description: The thickness of the cast film was adjusted to 0.1 mm.
(§1) T1/2 is defined as the time required for the color density to decrease to half of its initial value when the film is exposed to the fadeometer.

[2] = Durability of poly(allyl diglycol carbonate) lens impregnated with the compound in silicone oil, as in Example 9 (Example 10); design: Initial color density: unit not given here; conditions: silicone oil impregnation; for Initial color density: 1.0×10^-4 mole/g; for T1/2: xenon fadeometer
Description: as §1
The solution was impregnated in the surface of a lens composed of poly(allyl diglycol carbonate) at 200° C. for 1 hour. The concentration of the solution was adjusted to 1.0×10^-4 mole/g.

[3] = Fatigue life of fulgide/fulgimide and chromene compound in polymerized methacrylate plate (Example 15); conditions: 0.05 part
Description: (§2) […] The mixed solution was injected into a mold which was made of a glass plate and a gasket formed of an ethylene-vinyl acetate copolymer, and was heated to a temperature of 35° to 90° C. in an air oven over a period of 20 hours for polymerization. After the polymerization was over, the polymer was withdrawn from the glass plate of the mold.
(§3) The resulting polymerized plate was irradiated with sunlight for 10 minutes. On this occasion, a color tone of said plate was visually observed. In this polymerized plate, the fulgide or fulgimide compound and the chromene compound were measured for fatigue life in the same manner as in Example 9. Further, a color tone of the polymerized plate was visually observed in T1/2 (hrs.) of the fulgide or fulgimide compound.

[4] = Visual color tone of polymerized plate under sunlight (Example 15); conditions: 0.05 part
Description: as §2, §3

[5] = Fatigue life of photochromic PMMA cast film with ultraviolet stabilizer, xenon fadeometer (Examples 11-14); conditions: PMMA film, UV stabilizer Cyasorb UV1084, 0.2 part
Description: One hundred parts by weight of benzene, 10 parts by weight of poly(methyl methacrylate), 0.2 part […] The solution was cast on a slide glass (11.2×3.7 cm) to form a cast film having a thickness of 0.1 mm.
The fatigue life of photochromic film was measured as in Example 9 by a xenon long-life fadeometer (FAL-25AX-HC made by Suga Testing Instrument Co., Ltd.).
Example 11 was repeated except that the fulgimide compound obtained in Example 2 was used instead of fulgimide compound used in Example 11.
Example 11 was repeated except that the fulgimide or fulgide compounds shown in Table 28 were used instead of the fulgimide compounds in Example 11, and Cyasorb UV1084 was used as the ultraviolet stabilizer.

Row | Structure (SMILES) | λmax [1] | T1/2 [1] | λmax [2] | Initial color density [2] | T1/2 [2] | Initial color density [1] | T1/2 [5] | further results
1 | CCOC1CC1C1=C2C(=O)N(C(C#N)CC)C(=O)C2C2(c3sc(OC)c(C)c31)C1CC3CC(C1)CC2C3 (stereo not shown) [(36)] | 576 nm | 88 h | 582 nm | 0.77 | 95 h | – | – | T1/2 of fulgide or fulgimide compound ([3]; with chromene 2 (0.03 part)): 206 h; Color tone in T0 ([4]; with chromene 2 (0.03 part)): gray; Color tone in T1/2 ([4]; with chromene 2 (0.03 part)): gray
2 | Cc1cc2c(n1C)C1(C3CC4CC(F)(C3)CC1(F)C4)C1C(=O)N(C3CCC([N+](=O)[O-])CC3)C(=O)C1=C2C1CC1 (stereo not shown) [(40)] | 532 nm | 71 h | 535 nm | 0.70 | 74 h | 0.77% | 280 h | –
3 | CCOC(=O)OCN1C(=O)C2=C(C3CC3c3ccccc3)c3cc(OCC)sc3C3(C4CC5CC(C)(C4)CC3(C)C5)C2C1=O (stereo not shown) [(41)] | 557 nm | 65 h | – | – | – | 0.82% | 263 h | –
4 | CCn1c2c(c3ccccc31)C(C1CC1C(=O)O)=C1C(=O)N(CC(=O)OCCC#N)C(=O)C1C21C2CC3CC(O)(C2)CC1(O)C3 (stereo not shown) [(44)] | 576 nm | 62 h | – | – | – | 0.75% | – | T1/2 of fulgide or fulgimide compound ([3]; with chromene 3 (0.08 part)): 154 h; Color tone in T0 ([4]; with chromene 3 (0.08 part)): gray; Color tone in T1/2 ([4]; with chromene 3 (0.08 part)): gray
5 | O=C(CN1C(=O)C2=C(C3CC3)c3c(sc4c3CCCC4)C3(C4CC5CC(C4)CC3C5)C2C1=O)NCCCl (stereo not shown) [(46)] | – | 59 h | – | – | – | 0.71% | – | T1/2 of fulgide or fulgimide compound ([3]; with chromene 5 (0.07 part)): 148 h; Color tone in T0 ([4]; with chromene 5 (0.07 part)): amber; Color tone in T1/2 ([4]; with chromene 5 (0.07 part)): amber
6 | O=C1OC(=O)C2C1=C(C1CC1)c1c(sc3ccccc13)C21C2CCC1CC2 (stereo not shown) [(49)] | 564 nm | 58 h | – | – | – | 1.15% | 235 h | –
7 | O=C1OC(=O)C2C1=C(C1CC1C(F)(F)F)c1sc(Br)cc1C21C2CCC1CC2 (stereo not shown) [(50)] | 518 nm | 48 h | – | – | – | 0.90% | 200 h | –
8 | O=C1OC(=O)C2C1=C(C1CC1)c1c(sc3c1CCCC3)C21C2CCCC1CCC2 (stereo not shown) [(54)] | 568 nm | 52 h | 573 nm | 0.99 | 54 h | 1.09% | – | T1/2 of fulgide or fulgimide compound ([3]; with chromene 2 (0.03 part)): 134 h; Color tone in T0 ([4]; with chromene 2 (0.03 part)): gray; Color tone in T1/2 ([4]; with chromene 2 (0.03 part)): brown
9 | CCn1c2c(c3ccccc31)C(C1CC1)=C1C(=O)OC(=O)C1C21C2CC3CC1CC(C)(C3)C2 (stereo not shown) [(57)] | 559 nm | 55 h | – | – | – | 1.21% | 220 h | –
10 | O=C1OC(=O)C2C1=C(C1CC1)c1cc([N+](=O)[O-])sc1C21C2CC3CC(C2)CC1C3 (stereo not shown) [(59)] | 524 nm | 57 h | – | – | – | 1.21% | 228 h | –
